Key:
Acetyl CoA synthetase = experiment: In vivo liver enzyme study: acetyl CoA synthetase; design: species or system mouse; settings: CF1 liver after 16 days i.p.
Protocol: (§1) In vitro enzymatic studies were determined using 10% homogenates of CF1 male mouse liver with 50-200 μM of test drugs. In vivo enzymatic studies were determined using 10% homogenates of liver from CF1 male mice obtained after administering the agents for 16 days at a dose ranging from 2.5-20 mg/kg/day intraperitoneally. The liver homogenates for both in vitro and in vivo studies were prepared in 0.25M sucrose and 0.001M (ethylenedinitrilo)tetraacetic acid. Acetyl coenzyme A synthetase and adenosine triphosphate dependent citrate lyase activities were determined spectrophotometrically at 540 nm as the hydroxylamate of acetyl coenzyme A formed after 30 min at 37° C. Mitochondrial citrate exchange was determined by the procedure of Robinson et al [Eur. J. Biochem., 216, 63 (1970)] using ^14 C-sodium bicarbonate (41 mCi/mmol) incorporated into mitochondrial ^14 C-citrate after isolating rat mitochondria (9000 g×10 min) from the homogenates. The exchanges of the ^14 C-citrate were determined after incubating the mitochondrial fraction which was loaded with labeled citrate and test drugs for 10 min. Then the radioactivity was measured in the mitochondrial and supernantant fractions in scintillation fluid and expressed as a percentage. Cholesterol side chain oxidation was determined by the method of Kritchevsky and Tepper [Artherosclerosis, 18, 93 (1973)] using (26-^14 C) cholesterol (50 mCi/mmol) and mitochondria isolated from rat liver homogenates. […] Fatty acid synthetase activity was determined by the method of Brady et al [J. Biol. Chem., 235, 3093 (1960)] using [2-^14 C] malonyl-coenzyme A (37.5 mCi/mmol) which was incorporated into newly synthesized fatty acids that were extracted with ether and counted. Acyl transferase activity was determined with glycerol-3phosphate [L-2-^3 H(N)] […] HCl and counted. Phosphatidate phosphohydrolase activity was measured as the inorganic phosphate released after 30 min from phosphatidic acid by the method of Mavis et al [J. Lipid Res., 19, 467 (1978)]. […]

HMG CoA Reductase = molecular target: T1, HMG CoA Reductase (Mus musculus, UniProt Q01237); experiment: In vitro liver enzyme study: HMG CoA reductase; format: biochemical; settings: in vitro CF1 liver
T1 construct: 10% homogenates of CF1 male mouse liver; from tissue; host or cells: CF1 male mouse liver, post-mitochondrial supernatant
T1 sequence (Q01237 1-887): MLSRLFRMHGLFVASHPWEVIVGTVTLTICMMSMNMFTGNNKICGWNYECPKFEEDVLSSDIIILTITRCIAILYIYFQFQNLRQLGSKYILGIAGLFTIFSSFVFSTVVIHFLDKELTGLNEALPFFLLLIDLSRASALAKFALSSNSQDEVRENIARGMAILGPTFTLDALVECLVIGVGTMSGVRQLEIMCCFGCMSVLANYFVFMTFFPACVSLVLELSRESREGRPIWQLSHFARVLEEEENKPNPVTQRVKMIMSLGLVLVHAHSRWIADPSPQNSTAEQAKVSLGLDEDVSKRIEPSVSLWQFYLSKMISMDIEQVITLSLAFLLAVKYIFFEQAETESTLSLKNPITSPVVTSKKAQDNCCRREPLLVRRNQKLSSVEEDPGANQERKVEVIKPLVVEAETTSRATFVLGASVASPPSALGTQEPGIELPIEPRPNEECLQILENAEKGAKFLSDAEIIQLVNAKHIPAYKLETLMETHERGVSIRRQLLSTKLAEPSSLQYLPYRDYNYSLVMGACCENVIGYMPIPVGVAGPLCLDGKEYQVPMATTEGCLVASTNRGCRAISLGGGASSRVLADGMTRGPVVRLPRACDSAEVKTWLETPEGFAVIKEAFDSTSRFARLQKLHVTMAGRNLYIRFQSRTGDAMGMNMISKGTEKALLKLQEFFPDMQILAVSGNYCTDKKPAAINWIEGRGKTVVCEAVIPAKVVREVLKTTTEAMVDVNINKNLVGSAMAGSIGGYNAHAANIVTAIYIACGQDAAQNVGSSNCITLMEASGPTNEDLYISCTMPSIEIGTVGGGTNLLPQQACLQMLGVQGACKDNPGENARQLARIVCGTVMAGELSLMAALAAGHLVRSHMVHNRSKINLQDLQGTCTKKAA
Protocol: as §1

Substance: {Cu[(CH3)3 N.BH2 CO2 ]2.(CH3)3 N.BH2 COOH} [Compound I]
- Acetyl CoA synthetase (Acetyl CoA synthetase; 2.5 mg/kg): 62 ± 6% of control
- Acetyl CoA synthetase (Acetyl CoA synthetase; 5.0 mg/kg): 77 ± 7% of control
- Acetyl CoA synthetase (Acetyl CoA synthetase; 10 mg/kg): 73 ± 7% of control
- HMG CoA Reductase (HMG CoA Reductase; 50 μM): 102 ± 8 Percent Control
- HMG CoA Reductase (HMG CoA Reductase; 100 μM): 101 ± 9 Percent Control
- HMG CoA Reductase (HMG CoA Reductase; 200 μM): 105 ± 8 Percent Control
